Test results: patent publication US12590062B2, “PD-1/PD-L1 inhibitors” (Gilead Sciences, Inc., priority 2017, dated 2026)

Columns and labels:
PD-1/PD-L1 = PD-1/PD-L1 (Homo sapiens, UniProt Q9NZQ7); assay: PD-1/PD-L1 biochemical protein-protein interaction assay (ALPHA); assay type: binding; conditions: 0.3 nM His tagged PD-L1, 2.5 nM biotinylated Fc-PD-1, 60 minutes at 25° C., read-out: IC50 PD-L1-PD-1 Alpha IC50-mono PD-L1-fcP-D1
In short: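 Final concentrations 0.3 nM His-tagged PD-L1 and 2.5 nM biotinylated Fc-PD-1 (extracellular domains) were reacted with compound for 60 min at 25° C in pH 7.4 Hepes/NaCl/EDTA/Tween/BSA buffer. Binding was then detected by ALPHA beads, and IC50 values were taken from four-parameter curve fitting.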

PD-1/PD-L1 interaction = target: T1, PD-1/PD-L1 interaction (Homo sapiens, UniProt Q9NZQ7); assay: PD-1/PD-L1 NFAT reporter co-culture assay; assay type: cell-based; conditions: Jurkat PD-1 NFAT-luciferase cells co-cultured with aAPC-PD-L1 CHO cells, 6 hrs at 37° C.; read-out: EC50 NFAT Luciferase
T1 construct: expressed in transfected cells; host or cells: CHO cells (aAPC-PD-L1) co-cultured with Jurkat cells overexpressing PD-1 and an NFAT-luciferase reporter
In short: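 Jurkat cells overexpressing PD-1 with NFAT-driven luciferase were mixed with compound in RPMI 1640/2% FBS and seeded onto overnight-plated CHO aAPC-PD-L1 cells expressing surface anti-CD3 and PD-L1. Co-culture ran 6 h at 37 °C; luminescence read with ONE-Glo; EC50 from four-parameter fit.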

PD-L1 = target: T2, PD-L1 (Homo sapiens, UniProt Q9NZQ7); assay: PD-L1/PD-L1 dimerization biochemical protein-protein interaction assay (ALPHA); assay type: binding; conditions: compound-induced PD-L1 dimerization, head prints '1 nM' (0.5 nM His-tagged PD-L1 and 0.5 nM FLAG-tagged PD-L1), read-out: AC50 PDL1 Dimer Alpha 1 nM
T2 construct: determine if they can specifically dimerize the extracellular domains of PD-L1
Procedure: PD-L1/PD-L1 Dimerization Biochemical Protein-Protein Interaction Assay:
Compounds were tested in biochemical protein-protein interaction assays to determine if they can specifically dimerize the extracellular domains of PD-L1. Dimerization of the proteins (His-tagged PD-L1 and FLAG-tagged PD-L1) is measured using a bead based Amplified Luminescent Proximity Homogeneous Assay (ALPHA) platform. […] Assays are performed in 25 mM Hepes (pH 7.4), 150 mM NaCl, 3.4 mM EDTA, 0.005% Tween 20, and 0.01% BSA. Final protein concentration in the assays were 0.5 nM (His tagged PD-L) and 0.5 nM (FLAG tagged PD-L1). After an assay reaction time of 2 hours at 25° C., 20 μg/mL (final assay concentration) ALPHA assay acceptor beads (anti-His coated) were added and incubated for 60 minutes at 25° C. Binding was measured following a final 60 minute incubation with 40 μg/mL (final assay concentration) ALPHA assay donor beads (anti-FLAG coated). AC50 values were calculated from the fit of the dose-response curves to a four-parameter equation (Table 3).

Sequence of PD-1/PD-L1 (Q9NZQ7 19-238 limits assumed): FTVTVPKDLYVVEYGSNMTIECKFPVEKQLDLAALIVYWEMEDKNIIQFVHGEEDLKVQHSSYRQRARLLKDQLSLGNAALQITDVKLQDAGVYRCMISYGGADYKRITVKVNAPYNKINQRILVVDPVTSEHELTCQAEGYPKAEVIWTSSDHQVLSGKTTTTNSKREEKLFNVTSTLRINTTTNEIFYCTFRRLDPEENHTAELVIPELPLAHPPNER
T2 sequence (Q9NZQ7 19-238 limits assumed): as above
T2 sequence (Q9NZQ7 19-238 limits assumed): as above
T1 sequence (Q9NZQ7 19-290): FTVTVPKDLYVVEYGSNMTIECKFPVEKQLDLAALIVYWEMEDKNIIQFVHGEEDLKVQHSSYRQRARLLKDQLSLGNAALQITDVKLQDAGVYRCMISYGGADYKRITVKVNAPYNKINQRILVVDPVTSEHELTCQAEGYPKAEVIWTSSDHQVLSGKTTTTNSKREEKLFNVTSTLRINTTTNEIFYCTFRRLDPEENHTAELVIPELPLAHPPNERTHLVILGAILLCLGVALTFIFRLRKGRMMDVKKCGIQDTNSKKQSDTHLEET

Structure (SMILES) | IC50 (PD-1/PD-L1) [nM] | EC50 (PD-1/PD-L1 interaction) [nM] | AC50 (PD-L1) [nM]
COc1nc(O[C@H]2CCc3c(-c4cccc(-c5ccc(CNC[C@@H]6CCC(=O)N6)cc5)c4Cl)cccc32)c(Cl)cc1CN1CC[C@H](C(=O)O)C1 [Example 723] | 0.064 | 41 | 35.1
N#Cc1cc(C#N)cc(COc2nc(OCc3cccc(-c4cccc(-c5ccc(OCCN6CC7(CCC(=O)N7)C6)cc5)c4Cl)c3Cl)c(Cl)cc2CNC[C@@H](O)CC(=O)O)c1 [Example 565] | 0.259 | 112 | 73.4
Cc1c(COc2cc(OCc3cncc(C#N)c3)c(CNC[C@@H](O)CC(=O)O)cc2Cl)cccc1-c1cccc(Nc2nccc3cc(CNCCO)cnc23)c1C [Example 438] | 0.476 | 222 | 168
Cc1c(COc2cc(OCc3cncc(C#N)c3)c(CNCCO)cc2Cl)cccc1-c1cccc(COc2cc(OCc3cncc(C#N)c3)c(CNCCO)cc2Cl)c1Br [Example 480] | 1.12 | 147 | 114
COc1nc(-c2cccc(-c3cccc4c3CC[C@@H]4Oc3nc(OCc4cncc(C#N)c4)c(CN[C@@](C)(CO)C(=O)O)cc3Cl)c2Br)ccc1C1=NCCN1 [Example 702] | 0.316 | 1310 | 332
N#Cc1cncc(COc2nc(O[C@H]3CCc4c(-c5cccc(-c6ccc(OCCNCCO)cc6)c5Cl)cccc43)c(Br)cc2CNC[C@@H](O)CC(=O)O)c1 [Example 662] | 0.139 | 83 | 14.5
COc1nc(O[C@H]2CCc3c(-c4cccc(-c5ccc(CNC[C@@H]6CCC(=O)N6)cc5)c4Cl)cccc32)c(Cl)cc1CN[C@H]1CCC[C@H]1O [Example 716] | 0.403 | 343 | 15.1
COc1nc(-c2cccc(-c3cccc4c3CC[C@@H]4Oc3nc(OC)c(CN[C@@](C)(CO)C(=O)O)cc3Cl)c2Cl)ccc1CNC[C@@H]1CCC(=O)N1 [Example 727] | 0.064 | 27 | 15.8
N#Cc1cc(C#N)cc(COc2nc(OCc3cccc(-c4cccc(-c5ccc(OCCNCCO)cc5)c4Cl)c3Cl)c(Cl)cc2CNC[C@@H](O)CC(=O)O)c1 [Example 351, (S)-4-(((5-chloro-6-((2,2′-dichloro-4″-(2-((2-hydroxyethyl)amino)ethoxy)-[1,1′:3′,1″-terphenyl]-3-yl)methoxy)-2-((3,5-dicyanobenzyl)oxy)pyridin-3-yl)methyl)amino)-3-hydroxybutanoic acid] | 0.982 | 235 | 168
COc1cc(-c2cccc(-c3cccc4c3CC[C@@H]4Oc3nc(OC)c(CNC[C@@H]4CCC(=O)N4)cc3Br)c2Cl)ccc1CNC[C@@H]1CCC(=O)N1 [Example 792] | 0.534 | 40 | 22.7
COc1nc(-c2cccc(-c3cccc4c3CC[C@@H]4Oc3ccc(CN[C@@](C)(CO)C(=O)O)c(OCc4cncc(C#N)c4)n3)c2Cl)ccc1C1=NCCN1 [Example 746] | 0.064 | 143 | 104
COc1nc(-c2cccc(-c3cccc(-c4ccc5c(c4)CCC5N)c3Cl)c2Cl)ccc1C1=NCCN1 (stereo not drawn) [Example 624] | 0.109 | ≥ 50000 | 20.9
N#Cc1cncc(COc2nc(O[C@H]3CCc4c(-c5cccc(-c6ccc(OCCNCCO)cc6)c5Cl)cccc43)ccc2CNC[C@@H](O)CC(=O)O)c1 [Example 661] | 0.256 | 159 | 126
C[C@@](CO)(NCc1cc(Cl)c(O[C@H]2CCc3c(-c4cccc(-c5ccc(OCCNCCO)cc5)c4Cl)cccc32)nc1OCc1cc(C#N)cc(C#N)c1)C(=O)O [Example 332, (S)-2-(((5-chloro-6-(((S)-4-(2-chloro-4′-(2-((2-hydroxyethyl)amino)ethoxy)-[1,1′-biphenyl]-3-yl)-2,3-dihydro-1H-inden-1-yl)oxy)-2-((3,5-dicyanobenzyl)oxy)pyridin-3-yl)methyl)amino)-3-hydroxy-2-methylpropanoic acid] | 0.114 | 47 | 18.7

Other lines, results leading:

IC50 (PD-1/PD-L1) [nM] | EC50 (PD-1/PD-L1 interaction) [nM] | AC50 (PD-L1) [nM] | Structure (SMILES)
0.212 | 260 | 301 | Cc1c(COc2cc(OCc3cncc(C#N)c3)c(CN[C@@](C)(CO)C(=O)O)cc2Cl)cccc1-c1cccc(-c2ccc(OCCN3CCC4(CC3)CC(=O)N4)cc2)c1C [Example 441]
0.154 | 120 | 215 | Cc1c(COc2cc(OCc3cncc(C#N)c3)c(CN[C@@](C)(CO)C(=O)O)cc2Cl)cccc1-c1cccc(-c2ccc(CN[C@H]3CCCNC3=O)cc2)c1C [Example 573]
0.091 | 126 | 156 | Cc1c(COc2cc(OCc3cncc(C#N)c3)c(CN[C@@](C)(CO)C(=O)O)cc2Cl)cccc1-c1cccc(-c2ccc(CNCCS(C)(=O)=O)cc2)c1C [Example 571]
0.673 | 3720 | 223 | Cc1c(COc2cc(OCc3cncc(C#N)c3)c(CNC[C@@H](O)CC(=O)O)cc2Cl)cccc1-c1cccc(-c2ccc(CCN3CCCC3)cc2)c1C [Example 300, (S)-4-((5-chloro-2-((5-cyanopyridin-3-yl)methoxy)-4-((2,2′-dimethyl-4″-(2-(pyrrolidin-1-yl)ethyl)-[1,1′:3′,1″-terphenyl]-3-yl)methoxy)benzyl)amino)-3-hydroxybutanoic acid]
0.21 | 389 | 173 | Cc1c(COc2cc(OCc3cncc(C#N)c3)c(CN[C@@](C)(CO)C(=O)O)cc2Cl)cccc1-c1cccc(-c2ccc3c(c2)CCC3N(C)CCO)c1C (stereo partly drawn) [Example 375, (2S)-2-((5-chloro-2-((5-cyanopyridin-3-yl)methoxy)-4-((3′-(1-((2-hydroxyethyl)(methyl)amino)-2,3-dihydro-1H-inden-5-yl)-2,2′-dimethyl-[1,1′-biphenyl]-3-yl)methoxy)benzyl)amino)-3-hydroxy-2-methylpropanoic acid]
1.61 | 476 | 477 | Cc1c(COc2cc(OCc3cncc(C#N)c3)c(CNC[C@@H](O)CC(=O)O)cc2Cl)cccc1-c1cccc(-c2ccc3c(CNC[C@H]4CCC(=O)N4)ccnc3c2)c1C [Example 437]
0.064 | 72 | 8.06 | C[C@@](CO)(NCc1cc(Cl)c(O[C@H]2CCc3c(-c4cccc(-c5ccc(C6=NCCN6)cc5)c4Cl)cccc32)nc1OCc1cncc(C#N)c1)C(=O)O [Example 738]
1.15 | 439 | 1210 | Cc1c(COc2cc(OCc3cncc(C#N)c3)c(CNC[C@@H](O)CC(=O)O)cc2Cl)cccc1-c1cccc(-c2ccc(CNCc3cncc(C#N)c3)cc2)c1C [Example 326, (S)-4-((5-chloro-2-((5-cyanopyridin-3-yl)methoxy)-4-((4″-((((5-cyanopyridin-3-yl)methyl)amino)methyl)-2,2′-dimethyl-[1,1′:3′,1″-terphenyl]-3-yl)methoxy)benzyl)amino)-3-hydroxybutanoic acid]
0.064 | 59 | 137 | Cc1c(COc2cc(OCc3cncc(C#N)c3)c(CNC[C@@H](O)CC(=O)O)cc2Cl)cccc1-c1cccc(-c2ccc3c(c2)CC(NCC(=O)O)C3)c1C (stereo partly drawn) [Example 474]
0.064 | 191 | 34.8 | Cc1c(COc2cc(OCc3cncc(C#N)c3)c(CN[C@@](C)(CO)C(=O)O)cc2Cl)cccc1-c1cccc(-c2ccc(CN3CC4(CCC(=O)N4)C3)cc2)c1C [Example 579]
